For assay [1], the target named is T1, EP3 receptor (Homo sapiens, UniProt P43115).
T1 construct: purchased Millipore HTS092M
T1 sequence (P43115 1-390): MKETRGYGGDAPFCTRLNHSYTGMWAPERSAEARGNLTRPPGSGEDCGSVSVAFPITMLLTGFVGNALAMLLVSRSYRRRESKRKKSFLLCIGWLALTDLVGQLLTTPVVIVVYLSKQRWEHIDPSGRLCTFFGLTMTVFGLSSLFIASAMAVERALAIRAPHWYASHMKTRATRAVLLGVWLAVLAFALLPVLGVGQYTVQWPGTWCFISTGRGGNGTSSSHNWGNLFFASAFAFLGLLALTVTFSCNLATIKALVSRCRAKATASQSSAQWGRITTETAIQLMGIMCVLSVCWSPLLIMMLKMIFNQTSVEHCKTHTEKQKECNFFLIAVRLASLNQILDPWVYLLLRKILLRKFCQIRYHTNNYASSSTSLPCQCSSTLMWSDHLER
The experiment in a line: [3H]-PGE2 binding assay (EP3 competition binding). As to the method:
EP3 competition binding was determined using the following materials and experimental conditions:
Beads=Perkin Elmer RPNQ0001
EP3 membrane=Millipore HTS092M
Membrane concentration=2 μg/well
Beads concentration=0.25 mg/well
[3H]-PGE2=2 nM; DMSO—0.1%
Binding buffer=50 mM Tris, 10 mM MgCl2, 1 mM • EDTA, PH 7.4.
The binding buffer was removed from refrigeration (@ 4° C.) and allowed to warm to room temperature. Test compound (@ stock concentration of […] in DMSO) was serial dilutes (1:3) with 100% DMSO using Echo plate. Diluted test compound (30 nL) was dispensed to the 384-well assay plate (using Echo 550 Labcyte System). To each well was then added assay buffer (5 μl) and each well was spun. Beads were weighed out, dissolved in assay buffer to a concentration of 0.25 mg/15 μl. Original membrane was diluted with assay buffer to a concentration of 2 μg/5 μl. […] To each test well were then added diluted [3H]-PGE2 (5 μl), diluted membrane (5 μl), and dissolved beads (15 μl). The plate was equilibrated at room temperature on a plate shaker for 2 hours and then read with a TOPCOUNT scintillation plate reader. Results were analyzed using a Prism program with non-linear regression, one-site fit for Ki.

The target of assay [2] is T1, EP3 receptor. The experiment in a line: CHO cell cAMP assay (forskolin and sulprostone stimulated, HTRF). It is filed as cell-based. The note with it: CHO cells; sulprostone 700 nM (EC80) and FSK 2 μM (EC70), 37° C. for 30 minutes; read-out: CHO_cAMP IC50. As for the experimental part: For detection, a homogeneous competitive immunoassay (Time Resolved Fluorescence Energy Transfer (hTR-FRET)) was used.
Cells (6K cells per well) were plated in Poly-D-Lysine coated plates the day before the assay was to be run and were incubated at 37° C. […] At the start of the assay the buffer was removed from the cells and replaced with buffer containing test compound(s). Sulprostone at an EC80 dose (700 nM) and FSK at an EC70 dose (2 μM) were added to initiate the reaction (37° C. for 30 minutes).
FSK increases cAMP production and sulprostone decreases cAMP production produced by FSK. In this assay, EP3 antagonists will increase the cAMP to the level of cAMP generated by FSK alone.
Approximately one hour later the plates were read on an Envision (Perkin Elmer) in HTRF mode.
NSP, NSN, NSsample were converted to nM cAMP using the following equation: […]
IC50 values were determined from a […] (Hill equation) of a single 11-point compound dosing.
(cAMP levels reflect the balance of adenylyl cyclase and phosphodiesterase activity.)

Read-outs that look alike come from different tables or passages of the source.

Take `CC(C)C1(Cc2ccc(-c3ccc4cccc(F)c4c3)[nH]c2=O)OC(=O)NC1=O` (stereo not shown) [Compound #262, 5-((6-(8-fluoronaphthalen-2-yl)-2-oxo-1,2-dihydropyridin-3-yl)methyl)-5-isopropyloxazolidine-2,4-dione]: at EP3 receptor [1] (read-out: [3H]-PGE2 Binding Ki), the Ki was 152 nM. Further, at EP3 receptor [2], the IC50 turned out to be 282 nM.

`O=C1NC(=O)C2(CCCC(c3ccc(-c4ccc5ccccc5c4)[nH]c3=O)C2)O1` (stereo not drawn) [compound 188, anti-7-(6-(naphthalen-2-yl)-2-oxo-1,2-dihydropyridin-3-yl)-1-oxa-3-azaspiro[4.5]decane-2,4-dione]: the Ki on EP3 receptor [1] (read-out: [3H]-PGE2 Binding Ki) is 15 nM. Besides, the IC50 on EP3 receptor [2] was determined as 120 nM.

`CCN1CCOc2ccc(-c3ccc(C(CN4CCS(=O)(=O)CC4)C(C)C)c(=O)[nH]3)cc21` (stereo not shown) [Compound #104, 3-(1-(1,1-dioxidothiomorpholino)-3-methylbutan-2-yl)-6-(4-ethyl-3,4-dihydro-2H-benzo[b][1,4]oxazin-6-yl)pyridin-2(1H)-one]: the inhibition constant (Ki) on EP3 receptor [1] (read-out: [3H]-PGE2 Binding Ki) was 53 nM. Moreover, the IC50 on EP3 receptor [2] was found to be 375 nM.

Turning to `CCn1ncc2c(F)cc(-c3ccc(C(CC)(CC)CC4CCNC4=O)c(=O)[nH]3)cc21` (stereo not shown) [compound 40, 6-(1-ethyl-4-fluoro-1H-indazol-6-yl)-3-(3-((2-oxopyrrolidin-3-yl)methyl)pentan-3-yl)pyridin-2(1H)-one], the inhibition constant Ki on EP3 receptor [1] (read-out: [3H]-PGE2 Binding Ki) was determined as 11 nM. Further, the 50% inhibitory concentration (IC50) on EP3 receptor [2] was 44 nM.

On to `CC(C)C(F)(C(=O)NS(C)(=O)=O)c1ccc(-c2ccc3ccccc3c2)[nH]c1=O` (stereo not shown) [compound 224, 2-fluoro-3-methyl-N-(methylsulfonyl)-2-(6-(naphthalen-2-yl)-2-oxo-1,2-dihydropyridin-3-yl)butanamide], for which the Ki at EP3 receptor [1] (read-out: [3H]-PGE2 Binding Ki) is 1290 nM. Also, the IC50 at EP3 receptor [2] was found to be 10800 nM.

Take `CC(C)C(C(=O)NS(=O)(=O)c1cc(Cl)c(Cl)s1)c1ccc(-c2ccc3cccc(F)c3c2)[nH]c1=O` (stereo not shown) [compound 175, N-(4,5-dichlorothiophen-2-ylsulfonyl)-2-(6-(8-fluoronaphthalen-2-yl)-2-oxo-1,2-dihydropyridin-3-yl)-3-methylbutanamide]: the Ki at EP3 receptor [1] (read-out: [3H]-PGE2 Binding Ki) is 110 nM. Also, on EP3 receptor [2], the IC50 was found to be 171 nM.

Consider `CS(=O)(=O)N1CCC(c2ccc(-c3ccc4ccccc4c3)[nH]c2=O)CC1` [compound 186, 3-(1-(methylsulfonyl)piperidin-4-yl)-6-(naphthalen-2-yl)pyridin-2(1H)-one], for which the Ki at EP3 receptor [1] (read-out: [3H]-PGE2 Binding Ki) stood at 40 nM. Further, the IC50 on EP3 receptor [2] is 2830 nM.

For the molecule `CCn1nc(C)c2ccc(-c3ccc(C(C=C4OC(=O)NC4=O)(CC)CC)c(=O)[nH]3)cc21` [compound 34, 5-(2-ethyl-2-(6-(1-ethyl-3-methyl-1H-indazol-6-yl)-2-oxo-1,2-dihydropyridin-3-yl)butylidene)oxazo-lidine-2,4-dione], at EP3 receptor [2], the 50% inhibitory concentration (IC50) came out at 17600 nM.

As to `CC(C)C(/C=C1/OC(=O)NC1=O)c1ccc(-c2ccc3cccc(C#N)c3c2)[nH]c1=O` (stereo not shown) [compound 310, (E)-7-(5-(1-(2,4-dioxooxazolidin-5-ylidene)-3-methylbutan-2-yl)-6-oxo-1,6-dihydropyridin-2-yl)-1-naphthonitrile], the Ki on EP3 receptor [1] (read-out: [3H]-PGE2 Binding Ki) came to 71 nM.

For `CCc1nnc(C(CC)(CC)c2ccc(-c3cc(F)c4cnn(CC)c4c3)[nH]c2=O)o1` [Compound #53, 3-(3-(5-ethyl-1,3,4-oxadiazol-2-yl)pentan-3-yl)-6-(1-ethyl-4-fluoro-1H-indazol-6-yl)pyridin-2(1H)-one], the Ki on EP3 receptor [1] (read-out: [3H]-PGE2 Binding Ki) came to 6 nM.

On to `CCn1ncc2c(F)cc(-c3ccc(C4CC5CCC(C4)N5C(=O)NC(C)C)c(=O)[nH]3)cc21` (stereo not shown) [compound 208, 3-(6-(1-ethyl-4-fluoro-1H-indazol-6-yl)-2-oxo-1,2-dihydropyridin-3-yl)-N-isopropyl-8-azabicyclo[3.2.1]octane-8-carboxamide], for which, at EP3 receptor [1] ([3H]-PGE2 Binding Ki), the affinity, expressed as Ki, was 158 nM.

As for `CCn1ncc2c(F)cc(-c3ccc(C4CC5COC(=O)N5C4)c(=O)[nH]3)cc21` (stereo not shown) [compound 215, 6-(6-(1-ethyl-4-fluoro-1H-indazol-6-yl)-2-oxo-1,2-dihydropyridin-3-yl)tetrahydro-1H,3H-pyrrolo[1,2-c]oxazol-3-one], the Ki at EP3 receptor [1] (read-out: [3H]-PGE2 Binding Ki) was 165 nM.

With `CCC(CC)(c1ncc[nH]1)c1ccc(-c2ccc3cc(F)cc(F)c3c2)[nH]c1=O` [compound 50, 3-(3-(1H-imidazol-2-yl)pentan-3-yl)-6-(6,8-difluoronaphthalen-2-yl)pyridin-2(1H)-one], the inhibitory constant (Ki) on EP3 receptor [1] (read-out: [3H]-PGE2 Binding Ki) was 1080 nM.

Take `CCn1ncc2c(F)cc(-c3ccc(C(CC4CCNC4=O)C(C)C)c(=O)[nH]3)cc21` (stereo not drawn) [compound 148, anti-6-(1-ethyl-4-fluoro-1H-indazol-6-yl)-3-(3-methyl-1-(2-oxopyrrolidin-3-yl)butan-2-yl)pyridin-2(1H)-one]: the inhibition constant Ki at EP3 receptor [1] (read-out: [3H]-PGE2 Binding Ki) was 787 nM.

On to `CCn1ncc2c(F)cc(-c3ccc([C@@]45CCC[C@@H](C4)C(=O)O5)c(=O)[nH]3)cc21` (racemic) [compound 299], for which, on EP3 receptor [1] (read-out: [3H]-PGE2 Binding Ki), the Ki stood at 29 nM.

On to `CCn1ncc2c(F)cc(-c3ccc(C(CC4CCNC4=O)C(C)C)c(=O)[nH]3)cc21` (stereo not drawn) [compound 147, Syn-6-(1-ethyl-4-fluoro-1H-indazol-6-yl)-3-(3-methyl-1-(2-oxopyrrolidin-3-yl)butan-2-yl)pyridin-2(1H)-one], for which the Ki at EP3 receptor [1] (read-out: [3H]-PGE2 Binding Ki) stood at 632 nM.

Consider `CCn1ncc2cc(C)c(-c3ccc(C(/C=C4/OC(=O)NC4=O)(CC)CC)c(=O)[nH]3)cc21` [compound 43, 5-(2-ethyl-2-(6-(1-ethyl-5-methyl-1H-indazol-6-yl)-2-oxo-1,2-dihydropyridin-3-yl)butylidene)oxazolidine-2,4-dione], for which, at EP3 receptor [2], the IC50 was over 20000 nM.

`CCn1ncc2c(F)cc(-c3ccc(C(C(C)C)n4cnnc4)c(=O)[nH]3)cc21` (stereo not shown) [Compound #172, 6-(1-ethyl-4-fluoro-1H-indazol-6-yl)-3-(2-methyl-1-(4H-1,2,4-triazol-4-yl)propyl)pyridin-2(1H)-one]: on EP3 receptor [1] (read-out: [3H]-PGE2 Binding Ki), the Ki stood at 25 nM.

For `CCC(CC)(Cc1nnc[nH]1)c1ccc(-c2ccc3cc(F)cc(F)c3c2)[nH]c1=O` [compound 279, 3-(3-((4H-1,2,4-triazol-3-yl)methyl)pentan-3-yl)-6-(6,8-difluoronaphthalen-2-yl)pyridin-2(3H)-one], the Ki on EP3 receptor [1] (read-out: [3H]-PGE2 Binding Ki) turned out to be 60 nM.

As to `CCn1ncc2c(F)cc(-c3ccc(C(CC)(CC)c4nnc(C(F)(F)F)o4)c(=O)[nH]3)cc21` [Compound #45, 6-(1-ethyl-4-fluoro-1H-indazol-6-yl)-3-(3-(5-(trifluoromethyl)-1,3,4-oxadiazol-2-yl)pentan-3-yl)py-ridine-2(1H)-one], on EP3 receptor [1] (read-out: [3H]-PGE2 Binding Ki), the Ki amounted to 59 nM.

For the molecule `CCn1ncc2c(F)cc(-c3ccc(C(CC)(CC)Cc4ncco4)c(=O)[nH]3)cc21` [Compound #41, 6-(1-ethyl-4-fluoro-1H-indazol-6-yl)-3-(3-(oxazol-2-ylmethyl)pentan-3-yl)pyridin-2(1H)-one], the Ki at EP3 receptor [1] (read-out: [3H]-PGE2 Binding Ki) was 2 nM.

`CCn1ncc2c(F)cc(-c3ccc(C(CC)(CC)CC4CCCNC4=O)c(=O)[nH]3)cc21` (stereo not shown) [compound 58, 6-(1-ethyl-4-fluoro-1H-indazol-6-yl)-3-(3-((2-oxopiperidin-3-yl)methyl)pentan-3-yl)pyridin-2(1H)-one]: the inhibition constant (Ki) at EP3 receptor [1] (read-out: [3H]-PGE2 Binding Ki) came to 7 nM.

Consider `CCn1ncc2c(F)cc(-c3[nH]c(=O)c(C(CC)(CC)c4ncco4)cc3F)cc21` [Compound #37, 6-(1-ethyl-4-fluoro-1H-indazol-6-yl)-5-fluoro-3-(3-(oxazol-2-yl)pentan-3-yl)pyridin-2(1H)-one], for which the Ki at EP3 receptor [1] (read-out: [3H]-PGE2 Binding Ki) came out at 24 nM.

With `CCn1ncc2c(F)cc(-c3ccc(C4(C(C)C)OCCNC4=O)c(=O)[nH]3)cc21` (stereo not shown) [compound 248, 2-(6-(1-ethyl-4-fluoro-1H-indazol-6-yl)-2-oxo-1,2-dihydropyridin-3-yl)-2-isopropylmorpholin-3-one], the Ki at EP3 receptor [1] (read-out: [3H]-PGE2 Binding Ki) turned out to be 10 nM.

The Ki is the dissociation constant of the complex between target and ligand, obtained from inhibition or displacement. Usually IC50 stands for the point on the concentration scale where inhibition reaches its midpoint.
